Test results from patent US5994384A, “Pharmaceutical compositions of levo-enantiomers of medetomidine derivatives and their use” (Orion Corporation, priority 1995, dated 1999).

Experiments:
adrenergic α-2 receptors [1] = molecular target: T1, adrenergic α-2 receptors (Homo sapiens, UniProt P08913); settings: HEL cells; for antagonism of receptor activation to UK 14,304 by prior administration: intracellular Ca2+, 10 μM UK 14,304, 10 μM I-medetomidine, 1 μM rauwolscine
T1 sequence (P08913 1-465): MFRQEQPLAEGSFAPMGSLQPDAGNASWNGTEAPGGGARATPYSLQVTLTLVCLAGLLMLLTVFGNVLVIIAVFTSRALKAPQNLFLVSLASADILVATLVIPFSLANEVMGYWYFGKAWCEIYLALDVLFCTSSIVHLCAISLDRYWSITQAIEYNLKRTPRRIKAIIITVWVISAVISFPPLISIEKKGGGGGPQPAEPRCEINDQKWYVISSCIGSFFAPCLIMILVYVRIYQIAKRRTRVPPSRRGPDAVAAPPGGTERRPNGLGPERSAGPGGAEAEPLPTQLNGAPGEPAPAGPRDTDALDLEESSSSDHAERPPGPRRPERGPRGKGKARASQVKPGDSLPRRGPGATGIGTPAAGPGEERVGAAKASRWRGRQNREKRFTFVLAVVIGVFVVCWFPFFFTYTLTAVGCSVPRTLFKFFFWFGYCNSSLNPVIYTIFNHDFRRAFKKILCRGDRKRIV
Source text: This system was used to screen different adrenergic α-2 receptor agonists for functional purposes.
The cells were loaded with fura-2/AM (Molecular probes, Junction City, USA). […] The dye responses were calibrated by sequential addition of digitonin and EGTA at the end of the experiment to obtain maximal and minimal fluorescence values, respectively.

adrenergic α-2 receptors [2] = molecular target: T1, adrenergic α-2 receptors; experiment: cell-based; set-up: This cell line has been used as a model system for studying adrenergic α-2 receptors; endogenous in cells; host or cells: HEL (human erythroleukemia) cells
Experimental: The intracellular concentration of cAMP was measured by prelabelling the cells with [^3 H]adenine (Amersham, UK) as described by Jansson et al (1985, Eur. J. Pharmacol. […], 165). Separation of [^3 H]ATP and [^3 H]cAMP was achieved by the method of Salomon et al. (1974, Anal. Biochem. 58, 541). Conversion of cell-associated [^3 H]ATP to [^3 H]cAMP was expressed as a percentage of the total radioactivity and normalized to the percentage recovery of [^14 C]cAMP tracer.

Row | SMILES | decrease of the concentration of Ca2+ level (adrenergic α-2 receptors [1]; 10 μM compound) | antagonism of receptor activation to UK 14,304 by prior administration (adrenergic α-2 receptors [1]) | activation at 10 µM (adrenergic α-2 receptors [2]; HEL, read-out: further stimulation of forskolin stimulated cAMP production) | increase in the production of cAMP (adrenergic α-2 receptors [2]; hel cells)
1 | Cc1cccc([C@@H](C)c2cnc[nH]2)c1C [I-medetomidine, Levomedetomidine] | -17 ± 2 nM | did not antagonise receptor activation to UK | 42 ± 27% | –
2 | C=C[C@@]1(C)CC(=O)[C@]2(O)[C@@]3(C)[C@@H](O)CCC(C)(C)[C@@H]3[C@H](O)[C@H](OC(C)=O)[C@@]2(C)O1 [forskolin, reference compound] | – | – | – | 10 fold
3 | COC(=O)[C@H]1[C@H]2C[C@H]3c4[nH]c5ccccc5c4CCN3C[C@H]2CC[C@@H]1O [rauwolscine, reference compound] | – | did | – | –
